Test results reported in PubChem BioAssay AID1963435 (Molecular Pharmacology Branch, DTP, NCI, 2024).
Several values for one entry are separate records, joined by “and”; a condition that tells them apart may be missing. Identical values can stand only once.

Tested on: PANC-1 complex spheroid growth, percent test/control
Experiment: Anticancer human tumor PANC-1 cell line growth inhibition [Asc];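 note: spheroids exposed to agents for 7 days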;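 for viability, T/C: percent viability relative to DMSO vehicle wells taken as 100%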
Details: for viability, T/C: stronger effect = lower value; active = viability on the fitted dose curve at most 10% of control; inactive = the rest
Procedure, shortened: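 Concentration series start at each agent's clinical Cmax, or at 10 microM when none is established, and drop in half-log steps; agents are applied alone or together to complex spheroids built with HUVEC and hMSC.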

Cc1nc(N2CCC3(CC2)COC(C)C3N)c(CO)nc1Sc1ccnc(N)c1Cl (stereo unspecified) + CCN1C(C(=O)NC23CCC(C(=O)O)(CC2)CC3)C(c2cccc(Cl)c2F)C2(C(=O)Nc3cc(Cl)ccc32)C12CCCCC2
inactive: viability, T/C (second compound 0.00949 µM, first compound 0.00949 µM) 109% | viability, T/C (second compound 0.00949 µM, first compound 0.03 µM) 95.8% | viability, T/C (second compound 0.00949 µM, first compound 0.0949 µM) 92.8% | viability, T/C (second compound 0.00949 µM, first compound 0.3 µM) 87.7% | viability, T/C (second compound 0.00949 µM, first compound 0.949 µM) 92.1% | viability, T/C (second compound 0.00949 µM, first compound 3 µM) 92.6% | viability, T/C (second compound 0.03 µM, first compound 0.00949 µM) 102% | viability, T/C (second compound 0.03 µM, first compound 0.03 µM) 101% | viability, T/C (second compound 0.03 µM, first compound 0.0949 µM) 98.7% | viability, T/C (second compound 0.03 µM, first compound 0.3 µM) 89.5% | viability, T/C (second compound 0.03 µM, first compound 0.949 µM) 90% | viability, T/C (second compound 0.03 µM, first compound 3 µM) 94.1% | viability, T/C (second compound 0.0949 µM, first compound 0.00949 µM) 103% | viability, T/C (second compound 0.0949 µM, first compound 0.03 µM) 102% | viability, T/C (second compound 0.0949 µM, first compound 0.0949 µM) 98.6% | viability, T/C (second compound 0.0949 µM, first compound 0.3 µM) 92% | viability, T/C (second compound 0.0949 µM, first compound 0.949 µM) 93.7% | viability, T/C (second compound 0.0949 µM, first compound 3 µM) 91.3% | viability, T/C (second compound 0.3 µM, first compound 0.00949 µM) 98.7% | viability, T/C (second compound 0.3 µM, first compound 0.03 µM) 98.1% | viability, T/C (second compound 0.3 µM, first compound 0.0949 µM) 94.5% | viability, T/C (second compound 0.3 µM, first compound 0.3 µM) 96.7% | viability, T/C (second compound 0.3 µM, first compound 0.949 µM) 106% | viability, T/C (second compound 0.3 µM, first compound 3 µM) 99.2% | viability, T/C (second compound 0.949 µM, first compound 0.00949 µM) 113% | viability, T/C (second compound 0.949 µM, first compound 0.03 µM) 91.9% | viability, T/C (second compound 0.949 µM, first compound 0.0949 µM) 108% | viability, T/C (second compound 0.949 µM, first compound 0.3 µM) 101% | viability, T/C (second compound 0.949 µM, first compound 0.949 µM) 108% | viability, T/C (second compound 0.949 µM, first compound 3 µM) 92.9% | viability, T/C (second compound 3 µM, first compound 0.00949 µM) 115% | viability, T/C (second compound 3 µM, first compound 0.03 µM) 116% | viability, T/C (second compound 3 µM, first compound 0.0949 µM) 103% | viability, T/C (second compound 3 µM, first compound 0.3 µM) 108% | viability, T/C (second compound 3 µM, first compound 0.949 µM) 110% | viability, T/C (second compound 3 µM, first compound 3 µM) 103%
> 3000 nM: IC50 (curve of first compound, second compound 0.00949 µM) | IC50 (curve of first compound, second compound 0.03 µM) | IC50 (curve of first compound, second compound 0.0949 µM) | IC50 (curve of first compound, second compound 0.3 µM) | IC50 (curve of first compound, second compound 0.949 µM) | IC50 (curve of first compound, second compound 3 µM)

Cn1ncnc1[C@H]1c2n[nH]c(=O)c3cc(F)cc(c23)N[C@@H]1c1ccc(F)cc1 + CNC(C)C(=O)NC1CN(S(=O)(=O)c2cccc(S(=O)(=O)N3CCC4CCC(C(=O)NC(c5ccccc5)c5ccccc5)N4C(=O)C(NC(=O)C(C)NC)C3)c2)CCC2CCC(C(=O)NC(c3ccccc3)c3ccccc3)N2C1=O
> 100 nM: IC50 (curve of first compound, second compound 0.00316 µM) | IC50 (curve of first compound, second compound 0.01 µM) | IC50 (curve of first compound, second compound 0.0316 µM) | IC50 (curve of first compound, second compound 0.1 µM) | IC50 (curve of first compound, second compound 0.316 µM) | IC50 (curve of first compound, second compound 1 µM)
inactive: viability, T/C (second compound 0.00316 µM, first compound 0.000316 µM) 110% | viability, T/C (second compound 0.00316 µM, first compound 0.001 µM) 117% | viability, T/C (second compound 0.00316 µM, first compound 0.00316 µM) 128% | viability, T/C (second compound 0.00316 µM, first compound 0.01 µM) 114% | viability, T/C (second compound 0.00316 µM, first compound 0.0316 µM) 113% | viability, T/C (second compound 0.00316 µM, first compound 0.1 µM) 109% | viability, T/C (second compound 0.01 µM, first compound 0.000316 µM) 105% | viability, T/C (second compound 0.01 µM, first compound 0.001 µM) 108% | viability, T/C (second compound 0.01 µM, first compound 0.00316 µM) 99.6% | viability, T/C (second compound 0.01 µM, first compound 0.01 µM) 117% | viability, T/C (second compound 0.01 µM, first compound 0.0316 µM) 110% | viability, T/C (second compound 0.01 µM, first compound 0.1 µM) 111% | viability, T/C (second compound 0.0316 µM, first compound 0.000316 µM) 96.8% | viability, T/C (second compound 0.0316 µM, first compound 0.001 µM) 92.8% | viability, T/C (second compound 0.0316 µM, first compound 0.00316 µM) 96.6% | viability, T/C (second compound 0.0316 µM, first compound 0.01 µM) 109% | viability, T/C (second compound 0.0316 µM, first compound 0.0316 µM) 108% | viability, T/C (second compound 0.0316 µM, first compound 0.1 µM) 113% | viability, T/C (second compound 0.1 µM, first compound 0.000316 µM) 94.3% | viability, T/C (second compound 0.1 µM, first compound 0.001 µM) 102% | viability, T/C (second compound 0.1 µM, first compound 0.00316 µM) 97.3% | viability, T/C (second compound 0.1 µM, first compound 0.01 µM) 101% | viability, T/C (second compound 0.1 µM, first compound 0.0316 µM) 109% | viability, T/C (second compound 0.1 µM, first compound 0.1 µM) 115% | viability, T/C (second compound 0.316 µM, first compound 0.000316 µM) 109% | viability, T/C (second compound 0.316 µM, first compound 0.001 µM) 98.4% | viability, T/C (second compound 0.316 µM, first compound 0.00316 µM) 97.5% | viability, T/C (second compound 0.316 µM, first compound 0.01 µM) 99.6% | viability, T/C (second compound 0.316 µM, first compound 0.0316 µM) 111% | viability, T/C (second compound 0.316 µM, first compound 0.1 µM) 102% | viability, T/C (second compound 1 µM, first compound 0.000316 µM) 87.3% | viability, T/C (second compound 1 µM, first compound 0.001 µM) 107% | viability, T/C (second compound 1 µM, first compound 0.00316 µM) 111% | viability, T/C (second compound 1 µM, first compound 0.01 µM) 99% | viability, T/C (second compound 1 µM, first compound 0.0316 µM) 95.5% | viability, T/C (second compound 1 µM, first compound 0.1 µM) 102%

Cn1ncnc1[C@H]1c2n[nH]c(=O)c3cc(F)cc(c23)N[C@@H]1c1ccc(F)cc1
> 100 nM: IC50 (curve of compound)
inactive: viability, T/C (compound 0.000316 µM) 97.2% and 109% and 94.1% | viability, T/C (compound 0.001 µM) 104% and 101% and 106% | viability, T/C (compound 0.00316 µM) 99.2% and 110% and 107% | viability, T/C (compound 0.01 µM) 98.5% and 105% and 109% | viability, T/C (compound 0.0316 µM) 109% and 105% and 108% | viability, T/C (compound 0.1 µM) 109% and 105% and 115%
